How the values were obtained:
[1] = Functional stability assay in human plasma; settings: human plasma, 2 hours
Procedure, shortened: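 EPI-X4 derivatives at 20 μM final in pooled human plasma or whole blood (EDTA), incubated at 37 °C with shaking for 2 or 8 h. Residual activity was measured by 12G5-APC antibody competition on CXCR4 and compared with a non-incubated t=0 sample. Blood samples were centrifuged to remove cells before the competition assay.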

[2] = target: T1, CXCR4 12G5 epitope of AML cells (Homo sapiens, UniProt P61073); experiment: Blocking of the CXCR4 12G5 epitope of AML cells; type: binding
T1 construct: endogenous in cells
T1 sequence (P61073 whole entry): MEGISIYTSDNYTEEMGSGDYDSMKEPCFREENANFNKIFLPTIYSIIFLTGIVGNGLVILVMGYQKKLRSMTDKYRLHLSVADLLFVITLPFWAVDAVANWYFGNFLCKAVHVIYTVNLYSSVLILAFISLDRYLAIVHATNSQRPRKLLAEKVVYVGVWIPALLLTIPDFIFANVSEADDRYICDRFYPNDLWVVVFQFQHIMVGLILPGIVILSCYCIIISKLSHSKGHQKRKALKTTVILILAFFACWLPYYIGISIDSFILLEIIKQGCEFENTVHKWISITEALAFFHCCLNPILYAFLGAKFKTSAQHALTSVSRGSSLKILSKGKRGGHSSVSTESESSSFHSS
Description: (§1) Experimental data support the efficiency of the claimed peptide derivatives against the diseases mentioned above. At the example of JM #21 (SEQ ID NO.: 23) it could be shown that the peptides counteract growth and migration in vitro and in vivo of Acute Myeloid Leukemia (AML) cells as well as primary patient material and Waldenström's Macroglobulinemia (WM) cells harboring different WHIM-like CXCR4 mutations. This was accompanied by intrinsic changes suppressing oncogenic MAP kinase signaling of AML and WM cells.

[3] = system: CXCR4 12G5 epitope of WM cells; experiment: Blocking of the CXCR4 12G5 epitope of WM cells; type: binding; settings: with or without CXCR4 mutations
Description: as §1

## CC[C@H](C)[C@H](N)C(=O)N[C@@H](CC(C)C)C(=O)N[C@@H](CCCNC(=N)N)C(=O)N[C@@H](Cc1c[nH]c2ccccc12)C(=O)N[C@@H](CO)C(=O)N[C@@H](CCCNC(=N)N)C(=O)N[C@@H](CCCCN)C(=O)N[C@@H](CC(C)C)C(=O)N1CCC[C@H]1C(=O)N[C@@H](CS)C(=O)N[C@H](C(=O)N[C@@H](CO)C(=O)O)C(C)C [JM #21]
[1]
  remaining (relative) activity after 2 hours of plasma incubation: completely inactive
[2]
  blocking of CXCR4 12G5 epitope of AML cells: efficiently blocked the CXCR4 12G5 epitope of AML cells in a dose dependent manner
[3]
  blocking of CXCR4 12G5 epitope of WM cells: blocked the CXCR4 12G5 epitope of WM cells in presence or absence of different CXCR4 mutations in a dose dependent manner
